Oligonucleotides are written 5' to 3', each unit as a sugar letter and its base; * is a phosphorothioate linkage, no mark a phosphodiester; rarer units and linkages stand in square brackets, end groups in braces. Plain capitals give the bases only. d = 2'-deoxy (DNA); r = 2'-OH (RNA)
Target: UBE2V1
Experiment: reporter assay of Huesken 2005
Details: siRNA
Also: test concentration or dose not given here.

Substance	normalised inhibition (eCFP-eYFP dual reporter)
sense rGrUrArGrGrArGrArUrGrGrCrArCrArGrUrUrAdTdT / antisense rUrArArCrUrGrUrGrCrCrArUrCrUrCrCrUrArCdTdC	88.8%
sense rGrUrCrUrArArArGrArArArArUrArUrGrArArAdTdT / antisense rUrUrUrCrArUrArUrUrUrUrCrUrUrUrArGrArCdAdT	75.3%
sense rGrUrCrUrArGrArArGrArUrGrArCrGrArArGrAdTdT / antisense rUrCrUrUrCrGrUrCrArUrCrUrUrCrUrArGrArCdCdC	92%
sense rUrArCrArArGrArUrGrGrArCrArGrGrGrArUrGdTdT / antisense rCrArUrCrCrCrUrGrUrCrCrArUrCrUrUrGrUrAdAdG	52.7%
sense rUrArGrCrArArArArUrGrGrCrArGrArArUrUrCdTdT / antisense rGrArArUrUrCrUrGrCrCrArUrUrUrUrGrCrUrAdGdC	63%
sense rUrArGrCrUrGrGrGrGrUrCrUrArGrArArGrArUdTdT / antisense rArUrCrUrUrCrUrArGrArCrCrCrCrArGrCrUrAdAdC	82.8%
sense rUrArUrArGrCrArUrCrArArArGrUrUrGrUrCrCdTdT / antisense rGrGrArCrArArCrUrUrUrGrArUrGrCrUrArUrAdTdG	47%
sense rUrCrArArArGrUrUrGrUrCrCrUrGrCrArArGrAdTdT / antisense rUrCrUrUrGrCrArGrGrArCrArArCrUrUrUrGrAdTdG	89.8%
sense rUrCrArUrArUrArGrCrArUrCrArArArGrUrUrGdTdT / antisense rCrArArCrUrUrUrGrArUrGrCrUrArUrArUrGrAdAdT	49%
sense rUrCrCrCrUrCrArGrCrCrGrCrCrCrGrArArGrGdTdT / antisense rCrCrUrUrCrGrGrGrCrGrGrCrUrGrArGrGrGrAdGdT	46.6%
sense rUrCrGrCrArArUrUrUrCrCrGrArCrUrGrUrUrGdTdT / antisense rCrArArCrArGrUrCrGrGrArArArUrUrGrCrGrAdGdG	85.6%
sense rUrCrGrGrCrGrCrCrUrArArUrGrArUrGrUrCrUdTdT / antisense rArGrArCrArUrCrArUrUrArGrGrCrGrCrCrGrAdAdG	78.8%
sense rUrCrUrArGrArArGrArUrGrArCrGrArArGrArCdTdT / antisense rGrUrCrUrUrCrGrUrCrArUrCrUrUrCrUrArGrAdCdC	58%
sense rUrGrArArCrCrUrArGrArArArArUrUrUrCrArCdTdT / antisense rGrUrGrArArArUrUrUrUrCrUrArGrGrUrUrCrAdAdG	43%
sense rUrGrArGrUrGrArUrGrArArGrGrArArGrArCrUdTdT / antisense rArGrUrCrUrUrCrCrUrUrCrArUrCrArCrUrCrAdGdT	62.3%
sense rUrGrCrUrArGrCrArArArArUrGrGrCrArGrArAdTdT / antisense rUrUrCrUrGrCrCrArUrUrUrUrGrCrUrArGrCrAdCdT	71.4%
sense rUrGrGrArArGrArArCrUrCrGrArArGrArArGrGdTdT / antisense rCrCrUrUrCrUrUrCrGrArGrUrUrCrUrUrCrCrAdAdC	59.9%
sense rUrGrGrCrArGrArArUrUrCrArUrArUrArGrCrAdTdT / antisense rUrGrCrUrArUrArUrGrArArUrUrCrUrGrCrCrAdTdT	89.7%
sense rUrGrGrGrCrCrUrCrCrArArGrArArCrArArUrUdTdT / antisense rArArUrUrGrUrUrCrUrUrGrGrArGrGrCrCrCrAdAdT	57.1%
sense rUrGrGrGrGrUrCrUrArGrArArGrArUrGrArCrGdTdT / antisense rCrGrUrCrArUrCrUrUrCrUrArGrArCrCrCrCrAdGdC	38.8%
sense rUrUrArArArArUrArGrArArUrGrUrGrGrArCrCdTdT / antisense rGrGrUrCrCrArCrArUrUrCrUrArUrUrUrUrArAdGdG	38.8%
sense rUrUrCrArCrUrGrCrArArArGrGrArGrUrArArAdTdT / antisense rUrUrUrArCrUrCrCrUrUrUrGrCrArGrUrGrArAdAdT	81.4%
sense rUrUrCrCrGrArCrUrGrUrUrGrGrArArGrArArCdTdT / antisense rGrUrUrCrUrUrCrCrArArCrArGrUrCrGrGrArAdAdT	52.3%
sense rUrUrGrUrCrCrUrGrCrArArGrArGrCrUrUrCrGdTdT / antisense rCrGrArArGrCrUrCrUrUrGrCrArGrGrArCrArAdCdT	51.9%

Target: not listed separately
Experiment: reporter assay of Huesken 2005
Details: siRNA

Substance	normalised inhibition (eCFP-eYFP dual reporter)
sense rArArArCrGrCrCrUrArCrGrGrGrArGrUrCrArAdTdT / antisense rUrUrGrArCrUrCrCrCrGrUrArGrGrCrGrUrUrUdGdC	93.6%
sense rArArGrArArArCrUrUrGrCrUrCrCrArGrArUrUdTdT / antisense rArArUrCrUrGrGrArGrCrArArGrUrUrUrCrUrUdCdT	79%

Reference: the OligoGym collection
